# In patent US20250296953A1, “3,4-THIAZOLO-STEROIDS AND METHODS OF MAKING AND USING THE SAME” (Arkansas State University - Jonesboro, priority 2018, published 2025):
# Like-named read-outs stand apart in the source and are kept apart here.
# What was measured:
# glioblastoma (SF-295) = experiment: NCI 60 five dose screen; conditions: SF-295 (CNS Cancer), five dose
# SF-539 = experiment: NCI 60 one dose screen; format: cell-based, human; conditions: one dose; CNS Cancer; SF-539
# NCI-H522 (NSCLC) = experiment: NCI 60 one dose screen; format: cell-based, human; conditions: Non-small Cell Lung Cancer
# SF-295 = experiment: NCI 60 one dose screen; format: cell-based, human; conditions: one dose; CNS Cancer; SF-295
# [1] = tested on: 60 different human tumor cell lines; experiment: NCI Development Therapeutics Program 60 cell line screen, one dose; format: cell-based
# [2] = tested on: 60 different human tumor cell lines; conditions: for GI50 / TGI: five dose
# [3] = A549/ATCC (Non-small Cell Lung Cancer)
# [4] = HOP-62 (Non-small Cell Lung Cancer)
# [5] = HOP-92 (Non-small Cell Lung Cancer)
# [6] = MDA-MB-231/ATCC (Breast Cancer)
substance,measurement,setting,value
"(1S,2R,13R,14S,18S)-7-(2,4-dimethylanilino)-2,18-dimethyl-6-thia-8-azapentacyclo[11.7.0.02,10.05,9.014,18]icosa-5(9),7,10-trien-17-one [IIa.14]",GI50,glioblastoma (SF-295),1810 nM
same,TGI,glioblastoma (SF-295),4.10E−6
same,Growth Percent,SF-539,8.46%
same,Growth Percent,NCI-H522 (NSCLC),24.64%
same,Growth Percent,SF-295,63.77%
same,Growth Percent,"[1]; Breast Cancer, BT-549",2.85%
same,Growth Percent,"[1]; Breast Cancer, HS 578T",45.27%
same,Growth Percent,"[1]; Breast Cancer, MCF7",18.18%
same,Growth Percent,"[1]; Breast Cancer, MDA-MB-231/ATCC",26.55%
same,Growth Percent,"[1]; Breast Cancer, MDA-MB-468",16.97%
same,Growth Percent,"[1]; Breast Cancer, T-47D",41.81%
same,Growth Percent,"[1]; CNS Cancer, SF-268",46.93%
same,Growth Percent,"[1]; CNS Cancer, SNB-19",44.03%
same,Growth Percent,"[1]; CNS Cancer, SNB-75",35.14%
same,Growth Percent,"[1]; CNS Cancer, U251",18.36%
same,Growth Percent,"[1]; Colon Cancer, COLO 205",62.35%
same,Growth Percent,"[1]; Colon Cancer, HCC-2998",84.48%
same,Growth Percent,"[1]; Colon Cancer, HCT-116",−27.32%
same,Growth Percent,"[1]; Colon Cancer, HT29",3.81%
same,Growth Percent,"[1]; Colon Cancer, KM12",44.55%
same,Growth Percent,"[1]; Colon Cancer, SW-620",4.35%
same,Growth Percent,"[1]; Leukemia, CCRF-CEM",7.99%
same,Growth Percent,"[1]; Leukemia, HL-60(TB)",9.29%
same,Growth Percent,"[1]; Leukemia, K-562",5.33%
same,Growth Percent,"[1]; Leukemia, MOLT-4",−0.31%
same,Growth Percent,"[1]; Leukemia, RPMI-8226",−3.52%
same,Growth Percent,"[1]; Leukemia, SR",−0.63%
same,Growth Percent,"[1]; Melanoma, LOX IMVI",−16.56%
same,Growth Percent,"[1]; Melanoma, M14",37.85%
same,Growth Percent,"[1]; Melanoma, MALME-3M",27.34%
same,Growth Percent,"[1]; Melanoma, MDA-MB-435",16.89%
same,Growth Percent,"[1]; Melanoma, SK-MEL-2",72.63%
same,Growth Percent,"[1]; Melanoma, SK-MEL-5",51.38%
same,Growth Percent,"[1]; Melanoma, SK-MEL-28",50.77%
same,Growth Percent,"[1]; Melanoma, UACC-62",39.03%
same,Growth Percent,"[1]; Melanoma, UACC-257",65.55%
same,Growth Percent,"[1]; Non-small Cell Lung Cancer, A549/ATCC",61.13%
same,Growth Percent,"[1]; Non-small Cell Lung Cancer, EKVX",51.95%
same,Growth Percent,"[1]; Non-small Cell Lung Cancer, HOP-62",45.74%
same,Growth Percent,"[1]; Non-small Cell Lung Cancer, HOP-92",65.93%
same,Growth Percent,"[1]; Non-small Cell Lung Cancer, NCI-H23",54.16%
same,Growth Percent,"[1]; Non-small Cell Lung Cancer, NCI-H226",72.85%
same,Growth Percent,"[1]; Non-small Cell Lung Cancer, NCI-H322M",79.50%
same,Growth Percent,"[1]; Non-small Cell Lung Cancer, NCI-H460",45.78%
same,Growth Percent,"[1]; Ovarian Cancer, IGROV1",17.68%
same,Growth Percent,"[1]; Ovarian Cancer, NCI/ADR-RES",53.35%
same,Growth Percent,"[1]; Ovarian Cancer, OVCAR-3",−6.33%
same,Growth Percent,"[1]; Ovarian Cancer, OVCAR-4",59.62%
same,Growth Percent,"[1]; Ovarian Cancer, OVCAR-5",59.08%
same,Growth Percent,"[1]; Ovarian Cancer, OVCAR-8",31.69%
same,Growth Percent,"[1]; Ovarian Cancer, SK-OV-3",78.49%
same,Growth Percent,"[1]; Prostate Cancer, DU-145",25.93%
same,Growth Percent,"[1]; Prostate Cancer, PC-3",15.83%
same,Growth Percent,"[1]; Renal Cancer, 786-0",5.54%
same,Growth Percent,"[1]; Renal Cancer, A498",66.68%
same,Growth Percent,"[1]; Renal Cancer, ACHN",32.28%
same,Growth Percent,"[1]; Renal Cancer, CAKI-1",49.83%
same,Growth Percent,"[1]; Renal Cancer, RXF 393",28.78%
same,Growth Percent,"[1]; Renal Cancer, SN12C",26.21%
same,Growth Percent,"[1]; Renal Cancer, TK-10",63.32%
same,Growth Percent,"[1]; Renal Cancer, UO-31",34.25%
same,CC50,[2],> 100 µM
same,GI50,[2]; 786-0 (Renal Cancer),1620 nM
same,TGI,[2]; 786-0 (Renal Cancer),3.07E−6
same,GI50,[2]; A498 (Renal Cancer),2540 nM
same,GI50,[2]; [3],3500 nM
same,TGI,[2]; [3],>1.00E−4
same,GI50,[2]; ACHN (Renal Cancer),2080 nM
same,TGI,[2]; ACHN (Renal Cancer),4.53E−6
same,GI50,[2]; BT-549 (Breast Cancer),1490 nM
same,TGI,[2]; BT-549 (Breast Cancer),2.94E−6
same,GI50,[2]; CAKI-1 (Renal Cancer),2830 nM
same,TGI,[2]; CAKI-1 (Renal Cancer),>1.00E−4
same,GI50,[2]; CCRF-CEM (Leukemia),2450 nM
same,TGI,[2]; CCRF-CEM (Leukemia),>1.00E−4
same,GI50,[2]; COLO 205 (Colon Cancer),2500 nM
same,TGI,[2]; COLO 205 (Colon Cancer),6.54E−6
same,GI50,[2]; DU-145 (Prostate Cancer),2040 nM
same,TGI,[2]; DU-145 (Prostate Cancer),5.18E−6
same,GI50,[2]; EKVX (Non-small Cell Lung Cancer),2130 nM
same,GI50,[2]; HCC-2998 (Colon Cancer),1900 nM
same,TGI,[2]; HCC-2998 (Colon Cancer),3.74E−6
same,GI50,[2]; HCT-15 (Colon Cancer),2680 nM
same,GI50,[2]; HCT-116 (Colon Cancer),1490 nM
same,TGI,[2]; HCT-116 (Colon Cancer),2.85E−6
same,GI50,[2]; HL-60(TB) (Leukemia),2470 nM
same,TGI,[2]; HL-60(TB) (Leukemia),6.03E−6
same,GI50,[2]; [4],2430 nM
same,TGI,[2]; [4],6.92E−6
same,GI50,[2]; [5],1720 nM
same,TGI,[2]; [5],3.86E−6
same,GI50,[2]; HS 578T (Breast Cancer),3750 nM
same,TGI,[2]; HS 578T (Breast Cancer),>1.00E−4
same,GI50,[2]; HT29 (Colon Cancer),2550 nM
same,TGI,[2]; HT29 (Colon Cancer),7.04E−6
same,GI50,[2]; IGROV1 (Ovarian Cancer),2110 nM
same,TGI,[2]; IGROV1 (Ovarian Cancer),5.14E−6
same,GI50,[2]; K-562 (Leukemia),2860 nM
same,TGI,[2]; K-562 (Leukemia),>1.00E−4
same,GI50,[2]; KM12 (Colon Cancer),2780 nM
same,GI50,[2]; LOX IMVI (Melanoma),1640 nM
same,TGI,[2]; LOX IMVI (Melanoma),3.13E−6
same,GI50,[2]; M14 (Melanoma),1850 nM
same,TGI,[2]; M14 (Melanoma),3.79E−6
same,GI50,[2]; MALME-3M (Melanoma),1990 nM
same,TGI,[2]; MALME-3M (Melanoma),5.55E−6
same,GI50,[2]; MCF7 (Breast Cancer),2310 nM
same,TGI,[2]; MCF7 (Breast Cancer),>1.00E−4
same,GI50,[2]; [6],2330 nM
same,TGI,[2]; [6],7.92E−6
same,GI50,[2]; MDA-MB-435 (Melanoma),3020 nM
same,TGI,[2]; MDA-MB-435 (Melanoma),>1.00E−4
